Measurements as given in patent publication US11970474B2, “Substituted benzodiazoles and use thereof in therapy” (THOMAS HELLEDAYS STIFTELSE FÖR MEDICINSK FORSKNING, priority 2018, dated 2024).

Experiments:
CCL2 = test: Mouse CCL2 assay in MLE12 cells; assay type: cell-based; details: Mus musculus, MLE12, 30 h, MLE12 cells; TNF-α 20 ng/ml; supernatant after 30 hours; HTRF; read-out: CCL2 (EC50)
Description: Cisbio mouse CCL2 assay is intended for the quantitative measurement of CCL2 in supernatant using HTRF® technology. The assay is compatible with mouse samples, and is highly specific for CCL2. CCL2 is detected in a sandwich assay format using 2 different specific antibodies, one labeled with Cryptate (donor) and the second with d2 (acceptor). The detection principle is based on HTRF® technology. When the labelled antibodies bind to the same antigen, the excitation of the donor with a light source (laser or flash lamp) triggers a Fluorescence Resonance Energy Transfer (FRET) towards the acceptor, which in turn fluoresces at a specific wavelength (665 nm). The two antibodies bind to the CCL2 present in the sample, thereby generating FRET. Signal intensity is proportional to the number of antigen-antibody complexes formed and therefore to the CCL2 concentration. • Materials: • Cells: MLE12 (Mouse Lung Epithelial cells, SV40 transformed) • Medium: DMEM/F12 (Gibco #11330057), FBS 5% (Gibco #10500064), Pen/Strep 50 U/50 μg/ml (Gibco #15070063) • Cell plates: 384-well, black/clear, TC-treated (Corning #3764) • Source plate: Labcyte LDV 384 (Labcyte #LP-0200) • Compound dilution plate: V-bottom 384-well PP plate (Greiner #781280) • Compounds: 10 mM stocks in DMSO • HTRF plates: 384-well, white, half area, non-binding (Costar #3824) • Mouse CCL2 kit: Cisbio 62MCCL2PEH • Other reagents: Trypsin/EDTA 10× (Gibco #15400054), PBS (Gibco #14190169), Resazurin (Sigma-Aldrich #199303), 1 mg/ml in PBS, TNF-α 200 μg/ml in PBS (Peprotech #300-01A) • Instruments: • Echo liquid handler (Labcyte) • Multidrop Combi (Thermo Scientific) • Sense plate reader (Hidex) Compound Handling:
(§1) Stock solutions (10 mM in DMSO) of compounds were dispensed in V-bottom 384-well plates and the following dilutions were prepared: 10 mM and 0.05 mM. The dilutions were transferred to the source plate. Duplicate 6 points dose-response curves of compounds were nano-dispensed in cell plates (CCL2 assay) and in parallel, 11 points DR curves in duplicates were nano-dispensed for the viability assay. The plates were heat sealed and kept at RT until use.
(§2) MLE12 cells in flasks were washed once with PBS, detached with Trypsin/EDTA, resuspended in fresh medium and counted. Cells were diluted to 3×10^5 cells/ml and seeded with Multidrop Combi in cell plates pre-dispensed with compounds, 25 μl/well (7500 cells/well). The plates were placed, one by one, in a CO2-incubator at 37° C. for 1 hour after which 25 μl/well of TNF-α (final concentration 20 ng/ml) were added. The plates were transferred back to the CO2-incubator placed in a plastic box with wet tissue in the bottom, to avoid evaporation, for 30 hours.
After 30 hours incubation, the plates were spun down 5 minutes at 400 g, and 16 μl/well of the supernatants were transferred to the assay plate. A mCCL2 standard curve was prepared according to the kit protocol and 16 μl/well of the standards were also added to the assay plate.
The anti-CCL2 antibody mix was prepared according to the kit protocol, and 4 μl/well were added to the assay plate. The plate was sealed and incubated over night at RT. After incubation the plate was read in Sense plate reader with Time-resolved FRET protocol (Ex330 nm/Em 620 and 665 nm). After data reduction, the delta ratios were imported to an excel template where the IC50 values were calculated.

OGG1 = OGG1 (Homo sapiens (Human), UniProt O15527); test: In vitro OGG1 activity assay; assay type: biochemical; details: 800 pM OGG1 enzyme, 2 nM human APEX1, 10 nM 8-oxoA:C substrate
Chain of OGG1 (O15527 whole entry): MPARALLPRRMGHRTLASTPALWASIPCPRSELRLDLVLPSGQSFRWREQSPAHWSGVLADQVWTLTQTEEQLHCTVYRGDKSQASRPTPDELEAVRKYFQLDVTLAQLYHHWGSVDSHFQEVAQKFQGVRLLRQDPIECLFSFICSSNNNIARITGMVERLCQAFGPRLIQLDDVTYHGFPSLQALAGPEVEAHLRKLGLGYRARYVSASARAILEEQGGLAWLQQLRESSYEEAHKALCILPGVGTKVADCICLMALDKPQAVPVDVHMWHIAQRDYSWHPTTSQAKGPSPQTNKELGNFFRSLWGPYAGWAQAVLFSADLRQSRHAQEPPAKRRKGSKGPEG
How it was run: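 Read-out is fluorescein fluorescence, with compounds in DMSO added first, then enzyme and substrate. OGG1 excises its substrate base from a quenched fluorophore-labelled duplex, and surplus APEX1 cuts the resulting apurinic site. The duplex then melts and fluorescence rises in proportion to glycosylase activity.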

MLE12 cells = test: Cell viability assay in MLE12 cells (resazurin); assay type: cell-based, mouse; details: Mus musculus, MLE12, 24 h, TNF-α 20 ng/ml, resazurin added after 24 hours culture
Protocol: as §1, §2
After 24 hours culture, resazurin reagent (stock 1 mg/ml in PBS) diluted 1:17 in PBS was added with Multidrop Combi, 10 μl/well, and plates were incubated for 6 hours. Plates were read in Sense plate reader with resorufin protocol (ex544 nm/em595 nm). The results were imported to an excel template where the EC50 values were calculated using XLfit.

Structure (SMILES): O=c1[nH]c2c(Br)cccc2n1[C@H]1CC[C@@H](C(=O)Nc2ccccc2)CC1 [Example 127, (Cis)-4-(4-bromo-2-oxo-2,3-dihydro-1H-1,3-benzodiazol-1-yl)-N-phenylcyclohexane-1-carboxamide]
- EC50 (CCL2): 28.7 µM
- IC50 (OGG1): 1.22 µM
- IC50 (MLE12 cells): 16.2 µM

Structure (SMILES): COc1ccc(NC(=O)[C@H]2CC[C@@H](n3c(=O)[nH]c4c(Br)cccc43)CC2)cc1C(F)(F)F [Example 129, (Cis)-4-(4-bromo-2-oxo-2,3-dihydro-1H-1,3-benzodiazol-1-yl)-N-[4-methoxy-3-(trifluoromethyl)phenyl]cyclohexane-1-carboxamide]
- EC50 (CCL2): 21.6 µM
- IC50 (OGG1): 0.116 µM
- IC50 (MLE12 cells): 9.48 µM

Structure (SMILES): O=c1[nH]c2c(Br)cccc2n1[C@H]1CC[C@@H](C(=O)Nc2ccc(Cl)cc2Cl)CC1 [Example 131, (Cis)-4-(4-bromo-2-oxo-2,3-dihydro-1H-1,3-benzodiazol-1-yl)-N-(2,4-dichlorophenyl)cyclohexane-1-carboxamide]
- EC50 (CCL2): 39.2 µM
- IC50 (OGG1): 0.676 µM
- IC50 (MLE12 cells): 17.4 µM

Structure (SMILES): O=c1[nH]c2c(Br)cccc2n1[C@H]1CC[C@@H](C(=O)Nc2ccc3cc[nH]c3c2)CC1 [Example 135, (Cis)-4-(4-bromo-2-oxo-2,3-dihydro-1H-1,3-benzodiazol-1-yl)-N-(1H-indol-6-yl)cyclohexane-1-carboxamide]
- EC50 (CCL2): 23.3 µM
- IC50 (OGG1): 0.094 µM
- IC50 (MLE12 cells): 9 µM

Structure (SMILES): O=c1[nH]c2c(Br)cccc2n1[C@H]1CC[C@@H](C(=O)Nc2ccc(F)cc2)CC1 [Example 136, (Cis)-4-(4-bromo-2-oxo-2,3-dihydro-1H-1,3-benzodiazol-1-yl)-N-(4-fluorophenyl)cyclohexane-1-carboxamide]
- EC50 (CCL2): 23.8 µM
- IC50 (OGG1): 0.501 µM
- IC50 (MLE12 cells): 8.86 µM

Structure (SMILES): Cc1ccc(NC(=O)[C@H]2CC[C@@H](n3c(=O)[nH]c4c(Br)cccc43)CC2)cc1 [Example 139, (Cis)-4-(4-bromo-2-oxo-2,3-dihydro-1H-1,3-benzodiazol-1-yl)-N-(4-methylphenyl)cyclohexane-1-carboxamide]
- EC50 (CCL2): 31.8 µM
- IC50 (OGG1): 0.058 µM
- IC50 (MLE12 cells): 10.1 µM

Structure (SMILES): COc1ccc(NC(=O)[C@H]2CC[C@@H](n3c(=O)[nH]c4c(Br)cccc43)CC2)cc1 [Example 140, (Cis)-4-(4-bromo-2-oxo-2,3-dihydro-1H-1,3-benzodiazol-1-yl)-N-(4-methoxyphenyl)cyclohexane-1-carboxamide]
- EC50 (CCL2): 34.6 µM
- IC50 (OGG1): 0.025 µM
- IC50 (MLE12 cells): 17.7 µM

Structure (SMILES): Cc1cc(NC(=O)[C@H]2CC[C@@H](n3c(=O)[nH]c4c(Br)cccc43)CC2)ccc1F [Example 142, (Cis)-4-(4-bromo-2-oxo-2,3-dihydro-1H-1,3-benzodiazol-1-yl)-N-(4-fluoro-3-methylphenyl)cyclohexane-1-carboxamide]
- EC50 (CCL2): 15.8 µM
- IC50 (OGG1): 0.497 µM
- IC50 (MLE12 cells): 7.96 µM

Structure (SMILES): COc1cc(NC(=O)[C@H]2CC[C@@H](n3c(=O)[nH]c4c(Cl)cccc43)CC2)ccc1C [Example 146, (Cis)-4-(4-chloro-2-oxo-2,3-dihydro-1H-1,3-benzodiazol-1-yl)-N-(3-methoxy-4-methylphenyl)cyclohexane-1-carboxamide]
- EC50 (CCL2): 29.6 µM
- IC50 (OGG1): 0.027 µM
- IC50 (MLE12 cells): 9.72 µM

Structure (SMILES): COc1ccc(NC(=O)[C@H]2CC[C@@H](n3c(=O)[nH]c4c(Cl)cccc43)CC2)cc1 [Example 147, (Cis)-4-(4-chloro-2-oxo-2,3-dihydro-1H-1,3-benzodiazol-1-yl)-N-(4-methoxyphenyl)cyclohexane-1-carboxamide]
- EC50 (CCL2): 32.1 µM
- IC50 (OGG1): 0.036 µM
- IC50 (MLE12 cells): 17.9 µM

Structure (SMILES): O=c1[nH]c2c(Cl)cccc2n1[C@H]1CC[C@@H](C(=O)Nc2ccc3cc[nH]c3c2)CC1 [Example 148, (Cis)-4-(4-chloro-2-oxo-2,3-dihydro-1H-1,3-benzodiazol-1-yl)-N-(1H-indol-6-yl)cyclohexane-1-carboxamide]
- EC50 (CCL2): 31.7 µM
- IC50 (OGG1): 0.098 µM
- IC50 (MLE12 cells): 15.7 µM

Structure (SMILES): Cc1ccc(NC(=O)[C@H]2CC[C@@H](n3c(=O)[nH]c4c(Cl)cccc43)CC2)cc1 [Example 149, (Cis)-4-(4-chloro-2-oxo-2,3-dihydro-1H-1,3-benzodiazol-1-yl)-N-(4-methylphenyl)cyclohexane-1-carboxamide]
- EC50 (CCL2): 33.7 µM
- IC50 (OGG1): 0.086 µM
- IC50 (MLE12 cells): 16.7 µM

Structure (SMILES): O=c1[nH]c2c(Cl)cccc2n1[C@H]1CC[C@@H](C(=O)Nc2ccc(Cl)cc2)CC1 [Example 150, (Cis)-4-(4-chloro-2-oxo-2,3-dihydro-1H-1,3-benzodiazol-1-yl)-N-(4-chlorophenyl)cyclohexane-1-carboxamide]
- EC50 (CCL2): 18.7 µM
- IC50 (OGG1): 0.106 µM
- IC50 (MLE12 cells): 7.58 µM

Structure (SMILES): COC(=O)c1cc(NC(=O)[C@H]2CC[C@@H](n3c(=O)[nH]c4c(Br)cccc43)CC2)ccc1OC [Example 151, Methyl 2-methoxy-5-[(cis)-4-(4-bromo-2-oxo-2,3-dihydro-1H-1,3-benzodiazol-1-yl)cyclohexaneamido]benzoate]
- EC50 (CCL2): 5.25 µM
- IC50 (OGG1): 0.526 µM
- IC50 (MLE12 cells): 17.1 µM

Structure (SMILES): Cc1cc(NC(=O)[C@H]2CC[C@@H](n3c(=O)[nH]c4c(Br)cccc43)CC2)ccc1Cl [Example 152, (Cis)-4-(4-bromo-2-oxo-2,3-dihydro-1H-1,3-benzodiazol-1-yl)-N-(4-chloro-3-methylphenyl)cyclohexane-1-carboxamide]
- EC50 (CCL2): 15.4 µM
- IC50 (OGG1): 0.074 µM
- IC50 (MLE12 cells): 6.18 µM

Structure (SMILES): Cc1ccc(NC(=O)[C@H]2CC[C@@H](n3c(=O)[nH]c4c(Br)cccc43)CC2)c(F)c1 [Example 153, (Cis)-4-(4-bromo-2-oxo-2,3-dihydro-1H-1,3-benzodiazol-1-yl)-N-(2-fluoro-4-methylphenyl)cyclohexane-1-carboxamide]
- EC50 (CCL2): 44 µM
- IC50 (OGG1): 0.383 µM
- IC50 (MLE12 cells): 24.6 µM

Structure (SMILES): COc1ccc(NC(=O)[C@H]2CC[C@@H](n3c(=O)[nH]c4c(Br)cccc43)CC2)c(F)c1F [Example 154, (Cis)-4-(4-bromo-2-oxo-2,3-dihydro-1H-1,3-benzodiazol-1-yl)-N-(2,3-difluoro-4-methoxyphenyl)cyclohexane-1-carboxamide]
- EC50 (CCL2): 52.3 µM
- IC50 (OGG1): 0.383 µM
- IC50 (MLE12 cells): 16.1 µM

Structure (SMILES): COc1c(F)cc(NC(=O)[C@H]2CC[C@@H](n3c(=O)[nH]c4c(Br)cccc43)CC2)cc1F [Example 160, (Cis)-4-(4-bromo-2-oxo-2,3-dihydro-1H-1,3-benzodiazol-1-yl)-N-(3,5-difluoro-4-methoxyphenyl)cyclohexane-1-carboxamide]
- EC50 (CCL2): 25.6 µM
- IC50 (OGG1): 0.081 µM
- IC50 (MLE12 cells): 8.18 µM

Structure (SMILES): COc1ccc(NC(=O)[C@H]2CC[C@@H](n3c(=O)[nH]c4c(Br)cccc43)CC2)cc1F [Example 164, (Cis)-4-(4-bromo-2-oxo-2,3-dihydro-1H-1,3-benzodiazol-1-yl)-N-(3-fluoro-4-methoxyphenyl)cyclohexane-1-carboxamide]
- EC50 (CCL2): 33.9 µM
- IC50 (OGG1): 0.043 µM
- IC50 (MLE12 cells): 12.9 µM

Structure (SMILES): O=c1[nH]c2c(Br)cccc2n1[C@H]1CC[C@@H](C(=O)Nc2ccc3c(c2)OCO3)CC1 [Example 166, (Cis)-N-(2H-1,3-benzodioxol-5-yl)-4-(4-bromo-2-oxo-2,3-dihydro-1H-1,3-benzodiazol-1-yl)cyclohexane-1-carboxamide]
- EC50 (CCL2): 42.7 µM
- IC50 (OGG1): 0.041 µM
- IC50 (MLE12 cells): 16.4 µM
